# Changes are numbered by the printed parent chain.
# Columns and labels:
# Assay in all cases: E. coli hemG growth inhibition by herbicide, AtPPO1 variant
# Assay type in all cases: cell-based
# Conditions in all cases: read-out: percentage growth inhibition
# AtPPO1 P154Y = target: T1, AtPPO1 P154Y (Arabidopsis thaliana, UniProt P55826, P154Y)
# T1 construct: expressed in transfected cells; host or cells: E. coli BL21(DE3) hemG (hemG replaced by CmR), pET24a plasmid
# T1 sequence (P55826 35-537 P154Y): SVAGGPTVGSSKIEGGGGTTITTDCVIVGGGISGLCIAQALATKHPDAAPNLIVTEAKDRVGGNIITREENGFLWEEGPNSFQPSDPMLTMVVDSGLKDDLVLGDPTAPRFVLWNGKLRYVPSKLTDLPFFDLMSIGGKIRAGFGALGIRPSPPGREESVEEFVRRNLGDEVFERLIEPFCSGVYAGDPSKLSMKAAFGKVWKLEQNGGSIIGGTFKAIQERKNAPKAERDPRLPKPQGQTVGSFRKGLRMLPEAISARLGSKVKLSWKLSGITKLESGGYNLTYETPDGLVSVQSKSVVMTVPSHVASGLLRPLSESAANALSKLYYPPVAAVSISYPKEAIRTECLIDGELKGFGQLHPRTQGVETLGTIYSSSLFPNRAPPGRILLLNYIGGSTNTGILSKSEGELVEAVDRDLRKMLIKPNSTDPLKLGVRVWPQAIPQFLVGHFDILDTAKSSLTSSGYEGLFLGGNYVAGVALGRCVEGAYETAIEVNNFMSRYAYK
# Method in brief: (§1)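 AtPPO1 variants from a site-saturation library, codon-optimised and T7-driven in pET24a, were expressed in E. coli BL21(DE3) lacking hemG (hemG replaced by CmR). Growth in Terrific broth with 0.1 mM IPTG plus 6.25 ppm herbicide 0 or E, 0.78 ppm herbicide B, or DMSO was read as OD600 after 24 h at 37° C; inhibition was calculated against the DMSO culture.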
# AtPPO1 A220C = target: T2, AtPPO1 A220C (Arabidopsis thaliana, UniProt P55826, A220C)
# T2 construct: expressed in transfected cells; host or cells: E. coli BL21(DE3) hemG (hemG replaced by CmR), pET24a plasmid
# T2 sequence (P55826 35-537 A220C): T1 sequence (P55826 35-537 P154Y) with Y120P, A186C
# Method in brief: as §1
# AtPPO1 Y219S = target: T3, AtPPO1 Y219S (Arabidopsis thaliana, UniProt P55826, Y219S)
# T3 construct: expressed in transfected cells; host or cells: E. coli BL21(DE3) hemG (hemG replaced by CmR), pET24a plasmid
# T3 sequence (P55826 35-537 Y219S): T1 sequence (P55826 35-537 P154Y) with Y120P, Y185S
# Method in brief: as §1
# AtPPO1 L464Y = target: T4, AtPPO1 L464Y (Arabidopsis thaliana, UniProt P55826, L464Y)
# T4 construct: expressed in transfected cells; host or cells: E. coli BL21(DE3) hemG, pET24a plasmid
# T4 sequence (P55826 35-537 L464Y): T1 sequence (P55826 35-537 P154Y) with Y120P, L430Y
# Method in brief: as §1
Structure (SMILES),inhibition at 0.78 ppm (AtPPO1 P154Y) [%],inhibition at 0.78 ppm (AtPPO1 A220C) [%],inhibition at 0.78 ppm (AtPPO1 Y219S) [%],inhibition at 0.78 ppm (AtPPO1 L464Y) [%],inhibition at 6.25 ppm (AtPPO1 P154Y) [%],inhibition at 6.25 ppm (AtPPO1 A220C) [%],inhibition at 6.25 ppm (AtPPO1 Y219S) [%],inhibition at 6.25 ppm (AtPPO1 L464Y) [%]
"C#CCN1C(=O)C(F)(F)Oc2cc(F)c(-n3c(=O)n(C)c(=S)n(C)c3=O)cc21 [Herbicide B, trifludimoxazin]",34,15,28,0,,,,
"CCOC(=O)[C@]1(C)CC(c2cc(-n3c(=O)n(C)c(=S)n(C)c3=O)c(F)cc2Cl)=NO1 [Herbicide D, ethyl (5S)-3-[2-chloro-5-(3,5-dimethyl-2,6-dioxo-4-thioxo-1,3,5-triazinan-1-yl)-4-fluoro-phenyl]-5-methyl-4H-isoxazole-5-carboxylate]",,,,,38,33,33,12
"CC(C)N(C)S(=O)(=O)NC(=O)c1cc(-n2c(=O)cc(C(F)(F)F)n(C)c2=O)c(F)cc1Cl [Herbicide E, saflufenacil]",,,,,68,66,49,5

# Reference: patent US20260297542A1, “HERBICIDE RESISTANT PLANTS” (SYNGENTA CROP PROTECTION AG, priority 2023, published 2026)
